US6653319B1, “Pharmaceutical formulation for poorly water soluble camptothecin analogues” (University of Kentucky Research Foundation, priority 2001, dated 2003)
≈ marks a conversion by molar mass, not a printed value. Entries after “also recorded” stand apart in the source; their conditions may differ.

Assays:
[1] = assay type: physicochemical
Description: A successful pharmaceutical formulation with a supersaturated drug concentration requires a physical stability with respect to drug precipitation. In our first attempt, 20-25 mg/mL of DB-67 was loaded in DMSO because of the drug's high solubility in this solvent. The dissolved DB-67 was then added slowly to a 20% (w/v) SBE-CD aqueous solution by a volume ratio of 1:9 to achieve a final drug concentration of 2 mg/mL. The dilution rate was maintained at 0.10 mL/min. […] A proper control of the release pattern (local or uniform) and rate of DB-67 into the dilution medium is therefore critical to the success of this type of formulation approach.
As described above, a slow and uniform release of DB-67 into a dilution medium may be accomplished by employing a chemical approach, namely by converting the E-ring opened DB-67 (Species II, see FIG. 1), which is highly water-soluble, to the neutral E-ring closed DB-67 (Species I) in a controlled fashion. […] Accordingly, 20 mg/mL of DB-67 was loaded in a sodium hydroxide solution with NaOH concentration maintained at twice that of the drug concentration. The prepared DB-67 alkaline aqueous solution was passed through a 0.2 μm filter before it was added slowly (0.11 mL/min) into 20% (w/v) acidic SBE-CD solution by a volume ratio of 1:9. In order to completely neutralize DB-67, HCl was present in the dilution solution in an amount equal to the amount of NaOH in the DB-67 alkaline solution. A small amount of acetate buffer (5 mM) was also included in the dilution medium to control the solution pH to about 4 in order to facilitate a timely conversion from the E-ring opened DB-67 to its E-ring closed counterpart.
Shortly after the lyophilization, the lyophilized sample was reconstituted and the stability of the reconstituted solution was examined following the same procedure as described above.
The precipitation profiles of DB-67 solutions containing other solubilizing agents such as liposomes and an acidic aqueous cosolvent solution comprising an equal volume mixture of ethanol and cremophor, prepared as described in Examples 3 and 4, respectively, were evaluated.

[2] = Solubilities of DB-67 in various solvent systems at 25° C. (excess drug, filtration, HPLC); assay type: physicochemical
Description: Solubilities of DB-67 or camptothecin in a given solvent system were determined by adding an amount of the drugs well in excess of its estimated solubility to 1-2 mL of the desired solvent in a 4-mL glass vial. The capped vial was rotated in a VWR2010 incubator set at 25° C. for a period of 3-15 days. The sample was then passed through a 0.45 μm filter, except for liposome or emulsion samples, which were passed through a 1.2 μm filter. The collected sample was weighed, diluted with methanol, and analyzed by HPLC. The HPLC system consisted of a Discovery C18 15 cm×4.6 mm column and a Discovery C18 2 cm×4.6 mm 5 μm guard column (Supelco), a Beckman 110B solvent delivery module, a Rheodyne M7125 injector with a […] (Rainin), a Waters M2487 Dual λ Absorbance detector set at 254 nm, an HP 3392A integrator, and a mobile phase of 25% and 41% (v/v) acetonitrile in 2% (w/v) triethylamine acetate for camptothecin and DB-67, respectively.
The solubility-pH profile for DB-67 in aqueous solution is presented in FIG. 2, where the curve is a […] using an equilibrium model for the base-catalyzed lactone-ring opening and ionization of substituents in DB-67 (10-OH and the —COOH when the lactone-ring is opened at a basic pH).

[3] = compared with FDA approved camptothecin analogs (Camptosar and Hycamtin); cited from earlier work
[4] = Solubility method to determine complex formation constant with SBE-CD; assay type: physicochemical
Description: (§1) To understand the complexation mechanisms behind this solubilization effect, a solubility method was employed to determine the formation constant between a camptothecin analogue and a cyclodextrin derivative. In the solubility experiment, the solution pH was controlled below 4.6 with a 30 mM citrate buffer.
(§2) In the limit of [CD]>>So, the relevant formation constants can be expressed as: […]
(§3) where So is the solubility in the absence of cyclodextrins, Kf^1:1 and Kf^1:2 are the 1:1 and 1:2 complex formation constants, and [CD] is concentration of cyclodextrin. A linear least-squares fit of the data for SBE-CD as shown in FIG. 3 yields the complex formation constant of Kf^1:1=8.5±0.2×10^3M^−1(r^2=0.999). […] The inability for SBE-CD to form 1:2 complexes with DB-67 apparently arises from the presence of an average of seven negatively charged sulfobutyl ether groups in a SBE-CD molecule preventing the approach of two SBE-CDs to each other to form 1:2 complexes. A least-squares fit of the data for HP-CD as shown in FIG. 3 according to Equation 1 yields the 1:1 and 1:2 complex formation constants of Kf^1:1=5.8±0.2×10^3M^−1 and […]±0.2 ×10^4M^−1(r^2=1.000).

[5] = Solubility method to determine complex formation constants with HP-CD; assay type: physicochemical
Description: as §1, §2, §3

[6] = Reaction kinetics of lactone-ring opening and closing (hydrolysis) in aqueous solution by HPLC; assay type: physicochemical
Description: The reaction kinetics for the E-ring opened and closed DB-67 were investigated in aqueous solutions at pH 7.4 and 4.0, respectively. The reactions were thermostated at 25±0.1° C. by a circulation water bath and initiated by adding 0.1 mL of reactants (Species I DB-67 in DMSO or Species II DB-67 in 2 mM NaOH; see FIG. 1) to a 30 mM phosphate or acetate buffer solution with an initial reactant concentration of 2-4×10^−6 M. After the addition and at different time intervals, aliquots of the reaction solutions were withdrawn and immediately assayed by HPLC. The concentrations of both species I and II were monitored in order to evaluate the mass balance and other possible degradation products. Simultaneous non-linear least-squares fits of the kinetic profiles yield the first-order rate constants for the lactone-ring opening and closing processes of kopen=1.1±0.1×10^−4 s^−1 and kclose=3.3±0.3×10^−4 s^−1.
We have also investigated the hydrolysis processes for the lactone-ring intact DB-67 (Species I) at pH 7.4 in the presence of 20% (w/v) SBE-CD and HP-CD, respectively. […] The fitted rate constants are kopen=(7.1±0.1)×10^−5s^−1 and kopen=(6.2±0.1)×10^−5s^−1 for 20% (w/v) SBE-CD and HP-CD, respectively. As noted above, the presence of 20% (w/v) SBE-CD or HP-CD reduces the rate for the lactone-ring opening process by 1.6- and 1.8-fold, respectively. The rate reduction is therefore more marked in the presence of HP-CD.

[7] = HP-CD, E-ring closed DB-67, pH below 4.6, 30 mM citrate buffer, fit to Equation 1

**Q.** Which “overall DB-67 concentration in the solution over time” value ([1]; 2 mg/mL DB-67, 1:9 dilution of alkaline solution into 20% (w/v) acidic SBE-CD, pH 4.4) does the source give for `CC[C@@]1(O)C(=O)OCc2c1cc1n(c2=O)Cc2c-1nc1ccc(O)cc1c2[Si](C)(C)C(C)(C)C` [DB-67, 7-t-butyldimethylsilyl-10-hydroxycamptothecin] here?
**A.** remained constant over an extended period of three days

**Q.** And the “time for conversion to E-ring closed DB-67 to be nearly complete” value ([1]; 20% (w/v) SBE-CD, measured solution pH 4.4)?
**A.** ≤ 100 min

**Q.** And the “precipitation on mechanical mixing of DB-67 in DMSO with 20% (w/v) SBE-CD” value ([1]; lactone-intact DB-67 in DMSO diluted into 20% (w/v) SBE-CD aqueous solution, final concentration >1 mg/mL (2 mg/mL, 1:9, 0.10 mL/min))?
**A.** precipitation occurs immediately; also recorded: precipitation occurred even during the mixing process and continued after the finish of mixing

**Q.** And the “loss of DB-67 during the preparation process” value ([1]; stable solutions prepared by the present method)?
**A.** < 2%

**Q.** What about the “S (solubility)” value ([2]; 5% Cremophor, 5% (v/v) in 5% (w/v) Dextrose/Water, 25° C., single sample) of the same molecule?
**A.** 200 µg/mL

**Q.** What about the “S (solubility)” value ([2]; 10% (v/v) PEG-400/water, 25° C.) of the same molecule?
**A.** (3.3 ± 0.5) × 10^−2 mg/mL

**Q.** What about the “S (solubility)” value ([2]; 40% (w/v) HPCD/water, 25° C.) of the same molecule?
**A.** (4.9 ± 0.2) × 10^−1 mg/mL

**Q.** And the “S (solubility)” value ([2]; 40% (w/v) SBE-CD/water/1 mM HCl, 25° C.)?
**A.** (2.09 ± 0.04) × 10^−1 mg/mL

**Q.** And the “S (solubility)” value ([2]; 40% PG, 10% (v/v) EtOH/water, 25° C.)?
**A.** (1.73 ± 0.04) × 10^−1 mg/mL

**Q.** And the “S (solubility)” value ([2]; 50% (v/v) PEG-400/water, 25° C.)?
**A.** (2.0 ± 0.3) × 10^−1 mg/mL

**Q.** And the “S (solubility)” value ([2]; 50% Cremophor, 50% (v/v) EtOH (Diluent-12), 25° C.)?
**A.** (7.5 ± 0.2) × 10^0 mg/mL

**Q.** And the “S (solubility)” value ([2]; Emulsion (20% soybean oil, 2% glycerin, 73% water, 4% Tween80, 1% eggPC), 25° C.)?
**A.** (2.06 ± 0.05) × 10^−1 mg/mL

**Q.** And the “S (solubility)” value ([2]; Liposome (70:25:5 (mole) DMPC:Chol:DMPG), 25° C.)?
**A.** (7.4 ± 0.3) × 10^−3 mg/mL

**Q.** And the “S (solubility)” value ([2]; Water/30 mM acetate buffer at pH 5.23, 25° C.)?
**A.** (1.11 ± 0.00) × 10^−5 mg/mL

**Q.** What about the “S (solubility)” value ([2]; Water/0.5 M carbonate buffer at pH 10.20, 25° C., single sample) of the same molecule?
**A.** 178 µg/mL

**Q.** What about the “solubility in an aqueous solution of acidic pH” value ([2]; pH 5.2, DB-67 mostly in E-ring intact form) of the same molecule?
**A.** 0.11 μg/mL

**Q.** And the “solubility in an aqueous solution” value ([2]; pH >10.2, mostly lactone-ring opened form)?
**A.** ~18000 µg/mL (≈ 37.6 mM)

**Q.** What about the “potency in in vitro cytotoxicity assays” value [3] of the same molecule?
**A.** comparable potency to other FDA approved camptothecin analogs

**Q.** What about the “DB-67 bound to SBE-CD” value ([4]; 20% (w/v) SBE-CD, predominantly 1:1 complexes) of the same molecule?
**A.** more than 99.8%

**Q.** What about the “1:1 complex formation constant Kf^1:1” value ([4]; SBE-CD, neutral E-ring intact DB-67, pH below 4.6, 30 mM citrate buffer, linear fit r^2=0.999) of the same molecule?
**A.** 8.5±0.2×10^3 M^−1

**Q.** And the “DB-67 included in the CD hydrophobic cavity” value ([5]; 20% (w/v) HP-CD)?
**A.** more than 99.9%

**Q.** What about the “complexes in the form of 1:2 complexes” value ([5]; 20% (w/v) HP-CD) of the same molecule?
**A.** roughly 46%

**Q.** And the “1:1 complex formation constant Kf^1:1” value [5, 7]?
**A.** 5.8±0.2×10^3 M^−1

**Q.** And the “1:2 complex formation constant (printed as Kf^1:1)” value [5, 7]?
**A.** 3.8±0.2 ×10^4 M^−1

**Q.** And the “reduction in the observed rate constant” value ([6]; 20% (w/v) HP-CD, pH 7.4)?
**A.** approximately 44%

**Q.** And the “reduction of the rate for the lactone-ring opening process” value ([6]; 20% (w/v) HP-CD, pH 7.4)?
**A.** 1.8 fold

**Q.** And the “reduction of the rate for the lactone-ring opening process” value ([6]; 20% (w/v) SBE-CD, pH 7.4)?
**A.** 1.6 fold

**Q.** What about the “first-order rate constant for lactone-ring closing kclose” value ([6]; pH 4.0, 30 mM buffer, 25° C., no cyclodextrin) of the same molecule?
**A.** 3.3±0.3×10^−4 s^−1

**Q.** And the “first-order rate constant for lactone-ring opening kopen” value ([6]; pH 7.4, 30 mM buffer, 25° C., no cyclodextrin)?
**A.** 1.1±0.1×10^−4 s^−1

**Q.** And the rate constant kopen ([6]; pH 7.4, in the presence of 20% (w/v) HP-CD)?
**A.** (6.2±0.1)×10^−5 s^−1

**Q.** And the rate constant kopen ([6]; pH 7.4, in the presence of 20% (w/v) SBE-CD)?
**A.** (7.1±0.1)×10^−5 s^−1
